Read-outs that look alike come from different tables or passages of the source.
How the values were obtained:
[1] = biological target: T1, baculovirus-expressed ALK (Homo sapiens, UniProt Q9UM73); experiment: ALK Kinase Assay (ELISA-type, time-resolved fluorescence); assay type: biochemical
T1 construct: host or cells: baculovirus expression system
Summary of the method: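 Wells were coated with phospholipase C-γ at 10 μg/mL in Tris-buffered saline. Adding 30 ng/ml enzyme started the reaction, which ran at 37° C for 15 minutes before Eu-N1 PT66 antibody detection. Percent inhibition versus log10 concentration gave IC50 by variable-slope fit.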

[2] = biological target: T2, c-Met (cytoplasmic domain) (Homo sapiens, UniProt P08581); experiment: c-Met Kinase Assay (same methods as for ALK, with modifications); assay type: biochemical
T2 construct: 10 ng/mL c-Met (cytoplasmic domain, Invitrogen Corporation #PV3143); purchased Invitrogen Corporation PV3143
Summary of the method: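 Steps: coat wells with PLC-γ (10 μg/mL, Tris-buffered saline); add 10 ng/mL c-Met cytoplasmic domain to initiate; incubate 15 min, 37° C; detect phosphoproduct via Eu-N1 PT66 antibody.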

[3] = ALK kinase inhibition, 1 μM ATP, read-out: ALK Activity
[4] = c-Met kinase inhibition, 1 μM ATP, read-out: cMet Activity
[5] = 1 μM ATP (Km level), 30 ng/ml ALK, 37° C., 15 minutes, read-out: ALK Activity (ALK kinase inhibition, IC50 class)
[6] = 1 μM ATP (Km level), 10 ng/mL c-Met, read-out: cMet Activity (c-Met kinase inhibition, IC50 class)
[7] = 1 μM ATP (Km level), read-out: ALK Activity (ALK Kinase Inhibition, IC50)
[8] = 1 μM ATP (Km level), read-out: cMet Activity (c-Met Kinase Inhibition, IC50)
[9] = ALK kinase inhibition, 1 μM ATP (Km level), read-out: ALK Activity
[10] = c-Met kinase inhibition, 1 μM ATP (Km level), read-out: cMet Activity

T1 sequence (Q9UM73 19-1620): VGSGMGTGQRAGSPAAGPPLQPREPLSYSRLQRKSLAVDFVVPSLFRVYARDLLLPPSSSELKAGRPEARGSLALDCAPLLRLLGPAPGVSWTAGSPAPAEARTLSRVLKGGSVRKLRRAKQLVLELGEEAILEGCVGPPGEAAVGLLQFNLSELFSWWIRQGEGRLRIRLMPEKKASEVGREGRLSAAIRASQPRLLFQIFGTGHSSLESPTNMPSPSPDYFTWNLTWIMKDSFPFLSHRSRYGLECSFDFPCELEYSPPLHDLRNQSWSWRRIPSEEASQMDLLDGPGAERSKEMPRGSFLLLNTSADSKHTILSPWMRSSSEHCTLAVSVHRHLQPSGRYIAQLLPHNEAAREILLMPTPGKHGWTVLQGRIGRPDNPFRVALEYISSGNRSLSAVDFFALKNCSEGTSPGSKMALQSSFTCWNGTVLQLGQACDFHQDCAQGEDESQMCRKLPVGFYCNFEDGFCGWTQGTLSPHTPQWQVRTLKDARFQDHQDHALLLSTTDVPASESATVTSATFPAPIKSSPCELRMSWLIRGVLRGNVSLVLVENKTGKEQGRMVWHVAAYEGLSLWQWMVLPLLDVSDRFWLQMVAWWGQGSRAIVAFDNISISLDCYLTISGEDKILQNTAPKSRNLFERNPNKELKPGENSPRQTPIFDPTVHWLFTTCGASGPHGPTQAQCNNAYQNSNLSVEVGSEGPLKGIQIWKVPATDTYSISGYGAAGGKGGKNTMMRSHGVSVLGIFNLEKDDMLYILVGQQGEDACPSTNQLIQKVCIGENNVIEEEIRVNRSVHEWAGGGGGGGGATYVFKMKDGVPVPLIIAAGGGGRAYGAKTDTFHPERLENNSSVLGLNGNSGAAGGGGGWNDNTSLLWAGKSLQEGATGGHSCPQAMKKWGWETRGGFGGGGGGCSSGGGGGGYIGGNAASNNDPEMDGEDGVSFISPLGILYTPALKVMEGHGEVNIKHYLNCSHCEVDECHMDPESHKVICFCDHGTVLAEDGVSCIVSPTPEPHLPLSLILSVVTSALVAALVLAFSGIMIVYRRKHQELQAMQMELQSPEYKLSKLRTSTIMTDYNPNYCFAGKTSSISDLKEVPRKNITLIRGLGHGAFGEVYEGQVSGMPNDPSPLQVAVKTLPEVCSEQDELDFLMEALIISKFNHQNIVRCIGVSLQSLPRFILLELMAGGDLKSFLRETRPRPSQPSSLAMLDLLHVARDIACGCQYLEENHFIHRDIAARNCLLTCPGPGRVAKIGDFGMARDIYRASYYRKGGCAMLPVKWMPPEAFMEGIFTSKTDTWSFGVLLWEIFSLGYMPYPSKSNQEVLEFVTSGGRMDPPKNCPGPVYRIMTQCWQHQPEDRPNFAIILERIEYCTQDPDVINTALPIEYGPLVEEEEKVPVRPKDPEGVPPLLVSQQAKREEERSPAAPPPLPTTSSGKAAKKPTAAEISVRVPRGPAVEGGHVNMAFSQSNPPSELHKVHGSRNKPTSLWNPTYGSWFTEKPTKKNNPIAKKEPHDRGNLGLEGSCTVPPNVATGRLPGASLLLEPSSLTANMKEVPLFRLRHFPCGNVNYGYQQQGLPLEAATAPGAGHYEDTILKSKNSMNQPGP
T2 sequence (P08581 956-1390 limits assumed): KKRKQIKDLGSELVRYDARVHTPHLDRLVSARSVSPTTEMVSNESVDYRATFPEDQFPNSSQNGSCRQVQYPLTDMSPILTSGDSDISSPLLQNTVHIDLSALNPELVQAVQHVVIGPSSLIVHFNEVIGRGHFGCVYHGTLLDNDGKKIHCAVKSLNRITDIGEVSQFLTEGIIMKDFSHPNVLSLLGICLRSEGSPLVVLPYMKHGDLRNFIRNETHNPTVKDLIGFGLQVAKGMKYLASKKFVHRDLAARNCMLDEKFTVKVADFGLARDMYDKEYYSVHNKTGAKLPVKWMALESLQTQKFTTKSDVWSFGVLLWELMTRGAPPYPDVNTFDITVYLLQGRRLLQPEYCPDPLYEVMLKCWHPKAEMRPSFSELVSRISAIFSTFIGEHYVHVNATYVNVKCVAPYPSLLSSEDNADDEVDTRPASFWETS

In the case of `CN1Cc2cc(Nc3ncc(Cl)c(Nc4ccccc4OCC#N)n3)ccc2CCC1=O` [Example 1810, {2-[5-Chloro-2-(2-methyl-3-oxo-2,3,4,5-tetrahydro-1H-benzo[c]azepin-8-ylamino)-pyrimidin-4-ylamino]-phenoxy}-acetonitrile], the IC50 [1, 3] is reported as < 100 nM and the IC50 [2, 4] is reported as < 100 nM.

In the case of `CCOC(=O)N1CCCOc2cc(Nc3ncc(Cl)c(Nc4ccsc4C(=O)NC)n3)ccc21` [Example 1418, 3-[5-Chloro-4-(2-methylcarbamoyl-thiophen-3-ylamino)-pyrimidin-2-ylamino]-7,8-dihydro-6H-5-oxa-9-aza-benzocycloheptene-9-carboxylic acid ethyl ester], the IC50 [1, 5] is reported as 100 to 1000 nM and the IC50 [2, 6] is reported as 100 to 1000 nM.

In the case of `COc1cc2c(cc1Nc1ncc(Cl)c(Nc3ccc(N(C)C)cc3-n3cccn3)n1)CCN(CC(=O)N(C)C)CC2` [Example 631, 2-{7-[5-Chloro-4-(4-dimethylamino-2-pyrazol-1-yl-phenylamino)-pyrimidin-2-ylamino]-8-methoxy-1,2,4,5-tetrahydro-benzo[d]azepin-3-yl}-N,N-dimethyl-acetamide], the IC50 [1, 7] is reported as < 100 nM and the IC50 [2, 8] is reported as > 10000 nM.

`O=C1CCCc2ccc(Nc3ncc(Cl)c(Nc4c(F)cc(F)cc4N4CCOCC4)n3)cc2N1` [Example 1286, 8-[5-Chloro-4-(2,4-difluoro-6-morpholin-4-yl-phenylamino)-pyrimidin-2-ylamino]-1,3,4,5-tetrahydro-1-benzazepin-2-one] gave an IC50 [1, 5] of 1000 to 10000 nM and an IC50 [2, 6] of 1000 to 10000 nM.

`CNC(=O)c1ccccc1Nc1nc(Nc2ccc3c(c2)NC(=O)CN(C)C3)ncc1Cl` [Example 1867, 2-[5-Chloro-2-(4-methyl-2-oxo-2,3,4,5-tetrahydro-1H-benzo[e][1,4]diazepin-8-ylamino)-pyrimidin-4-ylamino]-N-methyl-benzamide] was tested, and the IC50 [1, 3] was 1000 to 10000 nM and the IC50 [2, 4] was < 100 nM.

For `CNC(=O)c1cccc(C(F)(F)F)c1Nc1nc(Nc2ccc3c(c2)CCOC(=O)N3C)ncc1Cl` [Example 1753, 2-[5-Chloro-2-(5-methyl-6-oxo-5,6,8,9-tetrahydro-7-oxa-5-aza-benzocyclohepten-2-ylamino)-pyrimidin-4-ylamino]-N-methyl-3-trifluoromethyl-benzamide], the IC50 [1, 3] was > 10000 nM and the IC50 [2, 4] was 100 to 1000 nM.

In the case of `CNC(=O)c1ccccc1Nc1nc(Nc2cccc3c2N(C)CCN(C)C3=O)ncc1Cl` [Example 541, 2-[5-Chloro-2-(1,4-dimethyl-5-oxo-2,3,4,5-tetrahydro-1H-benzo[e][1,4]diazepin-9-ylamino)-pyrimidin-4-ylamino]-N-methyl-benzamide], the IC50 [1, 7] is reported as 100 to 1000 nM and the IC50 [2, 8] is reported as > 10000 nM.

`CC1CNC(=O)c2c(Nc3ncc(Cl)c(N[C@@H]4CCCC[C@H]4NS(C)(=O)=O)n3)cccc2N1C(=O)C(F)(F)F` (stereo partly drawn) [Example 231, N-((1R,2R)-2-{5-Chloro-2-[2-methyl-5-oxo-1-(2,2,2-trifluoro-acetyl)-2,3,4,5-tetrahydro-1H-benzo[e][1,4]diazepin-6-ylamino]-pyrimidin-4-ylamino}-cyclohexyl)-methanesulfonamide] gave an IC50 [1, 9] of 100 to 1000 nM and an IC50 [2, 10] of 1000 to 10000 nM.

With `CNC(=O)c1ccccc1Nc1nc(Nc2ccc3c(c2)CCN(CC(C)(C)F)CC3)ncc1Cl` [Example 39, 2-{5-Chloro-2-[3-(2-fluoro-2-methyl-propyl)-2,3,4,5-tetrahydro-1H-benzo[d]azepin-7-ylamino]-pyrimidin-4-ylamino}-N-methyl-benzamide] the IC50 [1, 9] was < 100 nM and the IC50 [2, 10] was 100 to 1000 nM.

With `CNC(=O)c1cccc(Nc2nc(Nc3ccc4c(c3)CCN(CCOC)CC4)ncc2Cl)c1` [Example 673, 3-{5-Chloro-2-[3-(2-methoxy-ethyl)-2,3,4,5-tetrahydro-1H-benzo[d]azepin-7-ylamino]-pyrimidin-4-ylamino}-N-methyl-benzamide] the IC50 [1, 7] was 100 to 1000 nM and the IC50 [2, 8] was 1000 to 10000 nM.

With `CCN1C(=O)C(NC(=O)C2CC2)CCc2c1ccc(Nc1ncc(Cl)c(Nc3ccccc3S(=O)(=O)N(C)C)n1)c2OC` (stereo not shown) [Example 1359, Cyclopropanecarboxylic acid {7-[5-chloro-4-(2-dimethylsulfamoyl-phenylamino)-pyrimidin-2-ylamino]-1-ethyl-6-methoxy-2-oxo-2,3,4,5-tetrahydro-1H-benzo[b]azepin-3-yl}-amide] the IC50 [1, 5] was < 100 nM and the IC50 [2, 6] was > 10000 nM.

For `COc1c(Nc2ncc(Cl)c(N[C@@H]3CCCC[C@H]3NS(C)(=O)=O)n2)ccc2c1CCC(N1CCOCC1)CC2` (mixture of isomers) [Example 884, N-{(1R,2R)-2-[5-Chloro-2-(1-methoxy-7-morpholin-4-yl-6,7,8,9-tetrahydro-5H-benzocyclohepten-2-ylamino)-pyrimidin-4-ylamino]-cyclohexyl}-methanesulfonamide], the IC50 [1, 7] was < 100 nM and the IC50 [2, 8] was > 10000 nM.

For `O=C1CCCc2ccc(Nc3ncc(Cl)c(Nc4c(F)cccc4OC4CCOC4)n3)cc2N1` (stereo not shown) [Example 1273, 8-{5-Chloro-4-[2-fluoro-6-(tetrahydro-furan-3-yloxy)-phenylamino]-pyrimidin-2-ylamino}-1,3,4,5-tetrahydro-1-benzazepin-2-one], the IC50 [1, 5] was 100 to 1000 nM and the IC50 [2, 6] was 100 to 1000 nM.

With `COC(=O)CN1CCN(C)c2cc(Nc3ncc(Cl)c(Nc4ccccc4NS(C)(=O)=O)n3)ccc2C1` [Example 472, {8-[5-Chloro-4-(2-methanesulfonylamino-phenylamino)-pyrimidin-2-ylamino]-1-methyl-1,2,3,5-tetrahydro-benzo[e][1,4]diazepin-4-yl}-acetic acid methyl ester] the IC50 [1, 9] was < 100 nM and the IC50 [2, 10] was 100 to 1000 nM.

`CNC(=O)c1cccc(Cl)c1Nc1nc(Nc2ccc3c(c2)CCCC(=O)N3C)ncc1Cl` [Example 352, 3-Chloro-2-[5-chloro-2-(1-methyl-2-oxo-2,3,4,5-tetrahydro-1H-benzo[b]azepin-7-ylamino)-pyrimidin-4-ylamino]-N-methyl-benzamide] was tested, and the IC50 [1, 9] was 1000 to 10000 nM and the IC50 [2, 10] was < 100 nM.

For `COc1cc2c(cc1Nc1ncc(Cl)c(Nc3ccc(C(F)(F)F)cc3S(=O)(=O)N(C)C)n1)CCN(CC(=O)N(C)C)CC2` [Example 843, 2-{7-[5-Chloro-4-(2-dimethylsulfamoyl-4-trifluoromethyl-phenylamino)-pyrimidin-2-ylamino]-8-methoxy-1,2,4,5-tetrahydro-benzo[d]azepin-3-yl}-N,N-dimethyl-acetamide], the IC50 [1, 7] was < 100 nM and the IC50 [2, 8] was > 10000 nM.

In the case of `CCN1CC(=O)Nc2cc(Nc3ncc(Cl)c(N[C@@H]4CCCC[C@H]4NS(C)(=O)=O)n3)c(OC)cc2C1` [Example 1658, N-{(1R,2R)-2-[5-Chloro-2-(4-ethyl-7-methoxy-2-oxo-2,3,4,5-tetrahydro-1H-benzo[e][1,4]diazepin-8-ylamino)-pyrimidin-4-ylamino]-cyclohexyl}-methane-sulfonamide], the IC50 [1, 3] is reported as < 100 nM and the IC50 [2, 4] is reported as > 10000 nM.

`CNC(=O)c1cc(N(C)C)ccc1Nc1nc(Nc2ccc3c(c2)NC(=O)CCC3)ncc1Cl` [Example 1412, 2-[5-Chloro-2-(2-oxo-2,3,4,5-tetrahydro-1H-benzo[b]azepin-8-ylamino)-pyrimidin-4-ylamino]-5-dimethylamino-N-methyl-benzamide] showed an IC50 [1, 5] of 100 to 1000 nM and an IC50 [2, 6] of 100 to 1000 nM.

In the case of `COc1cc2c(cc1Nc1ncc(Cl)c(N[C@H]3[C@@H](C(N)=O)[C@@H]4C=C[C@H]3C4)n1)CCN(CC(C)O)CC2` (stereo partly drawn) [Example 1548, (1S,2S,3R,4R)-3-{5-Chloro-2-[3-(2-hydroxy-propyl)-8-methoxy-2,3,4,5-tetrahydro-1H-3-benzazepin-7-ylamino]-pyrimidin-4-ylamino}-bicyclo[2.2.1]hept-5-ene-2-carboxylic acid amide], the IC50 [1, 3] is reported as < 100 nM and the IC50 [2, 4] is reported as > 10000 nM.

For `COc1cc2c(cc1Nc1ncc(Cl)c(N[C@H]3[C@@H](C(N)=O)[C@@H]4C=C[C@H]3C4)n1)CCN(C[C@H](C)O)CC2` [Example 1558, (1S,2S,3R,4R)-3-{5-Chloro-2-[3-((S)-2-hydroxy-propyl)-8-methoxy-2,3,4,5-tetrahydro-1H-3-benzazepin-7-ylamino]-pyrimidin-4-ylamino}-bicyclo[2.2.1]hept-5-ene-2-carboxylic acid amide], the IC50 [1, 3] was < 100 nM and the IC50 [2, 4] was > 10000 nM.

For `CCN1CCN(CC)c2cc(Nc3ncc(Cl)c(Nc4ccc5c(c4)N(CC)CCN(CC)C5)n3)ccc2C1` [Example 721, 5-Chloro-N*2*,N*4*-bis(1,4-diethyl-2,3,4,5-tetrahydro-1H-benzo[e][1,4]diazepin-8-yl)-pyrimidin-2,4-diamine], the IC50 [1, 7] was < 100 nM and the IC50 [2, 8] was > 10000 nM.

`COc1cc2c(cc1Nc1ncc(Cl)c(N[C@H]3[C@@H](C(N)=O)[C@@H]4C=C[C@H]3C4)n1)CCN(Cc1ncco1)CC2` [Example 1179, (1S,2S,3R,4R)-3-[5-Chloro-2-(8-methoxy-3-oxazol-2-ylmethyl-2,3,4,5-tetrahydro-1H-benzo[d]azepin-7-ylamino)-pyrimidin-4-ylamino]-bicyclo[2.2.1]hept-5-ene-2-carboxylic acid amide] was tested, and the IC50 [1, 5] was < 100 nM and the IC50 [2, 6] was > 10000 nM.

For `COCCNC1CCc2cc(Nc3ncc(Cl)c(Nc4ccccc4S(=O)(=O)N(C)C)n3)c(OC)cc2CC1` (stereo not shown) [Example 1083, 2-{5-Chloro-2-[3-methoxy-7-(2-methoxy-ethylamino)-6,7,8,9-tetrahydro-5H-benzocyclohepten-2-ylamino]-pyrimidin-4-ylamino}-N,N-dimethyl-benzenesulfonamide], the IC50 [1, 5] was < 100 nM and the IC50 [2, 6] was 1000 to 10000 nM.
